One may read the EC50 as the midpoint of the concentration-response curve. Broadly, the CC50 is the concentration giving 50% cytotoxicity.

This note sets out measurements from ChEMBL document CHEMBL2203176, “Structure-based bioisosterism design, synthesis and biological evaluation of novel 1,2,4-triazin-6-ylthioacetamides as potent HIV-1 NNRTIs” (Bioorg Med Chem Lett, 2012).

Data set [1] is described as follows: Selectivity index, ratio of CC50 for human MT4 cells to EC50 for HIV2 ROD. It counts as toxicity, cell-based. Conditions: read-out: Ratio CC50/EC50.
Data set [2] deals with Human immunodeficiency virus 1. Nature of the data set: Antiviral activity against HIV1 3B infected in human MT4 cells assessed as inhibition of virus-induced cytopathicity by MTT assay. The data set is classed as functional, organism-based. To be noted: Human immunodeficiency virus 1, 3B. In general terms: Damage to the host cells serves as the signal in cytopathic effect assays.

The nature of data set [3]: Cytotoxicity against human MT4 cells by MTT assay. The data set is classed as cell-based. Background: Tetrazolium assays rely on reduction of a dye to a coloured formazan, in cell work by metabolically active cells.
Data set [4] concerns Human immunodeficiency virus 2. The data set is described as follows: Antiviral activity against HIV2 ROD infected in human MT4 cells assessed as inhibition of virus-induced cytopathicity by MTT assay. It counts as functional, organism-based. Conditions: Human immunodeficiency virus 2, ISOLATE ROD.
Data set [5] can be described thus: Selectivity index, ratio of CC50 for human MT4 cells to EC50 for HIV1 RES056 harboring reverse transcriptase K103N/Y181C mutant. It counts as toxicity, cell-based. Conditions: read-out: Ratio CC50/EC50.
Data set [6] in a line: Selectivity index, ratio of CC50 for human MT4 cells to EC50 for HIV1 3B. Conditions: read-out: Ratio CC50/EC50. The data set is classed as toxicity, cell-based.
For data set [7], the system named is Human immunodeficiency virus 1. Nature of the data set: Antiviral activity against HIV1 RES056 harboring reverse transcriptase K103N/Y181C mutant infected in human MT4 cells assessed as inhibition of virus-induced cytopathicity by MTT assay. The data set is classed as functional, organism-based. Conditions: Human immunodeficiency virus 1, RES056, MT4.

`CCOC(=O)c1ccc(NC(=O)CSc2nncnc2-c2ccccc2Cl)c(Br)c1`: the figures for the selectivity ratio in data set [1], in data set [5] and in data set [6] were < 1, < 1 and 302, respectively. The values for the EC50 in data set [2], in data set [4] and in data set [7] were 0.236 µM, > 69 µM and > 69 µM, respectively. For the same molecule, in data set [3], the half-maximal cytotoxic concentration (CC50) is 69 µM.

In the case of `O=C(CSc1nncnc1-c1ccccc1Cl)c1ccc(Cl)c(Cl)c1`, the selectivity ratio is < 1 in data set [1] and 5 in data set [6]. In addition, the EC50 in data set [2] was 6.2 µM; in data set [4], > 33 µM; in data set [7], > 33 µM. The CC50 in data set [3] is 33 µM.

Turning to `Cc1ccc2sc(NC(=O)CSc3nncnc3-c3ccccc3Cl)nc2c1`, the selectivity ratio in data set [1] and in data set [6] was < 1 each time. The EC50 in data set [2] and in data set [4] was > 32 µM throughout. The molecule further yielded a half-maximal cytotoxic concentration (CC50) in data set [3] of 137 µM.

Turning to `CC(C)Nc1cccnc1N1CCN(C(=O)c2cc3cc(NS(C)(=O)=O)ccc3[nH]2)CC1` [DELAVIRDINE], the concentration for a half-maximal effect (EC50) in data set [2] is 0.032 µM; in data set [7], > 36 µM. In addition, the CC50 in data set [3] is > 36 µM. Further, the selectivity ratio in data set [5] is < 1.

Turning to `O=C(CSc1nncnc1-c1ccccc1Cl)Nc1ccccn1`, the results for the selectivity ratio in data set [1], in data set [5] and in data set [6] were < 1, < 1 and 51, respectively. The values for the 50% effective concentration (EC50) in data set [2], in data set [4] and in data set [7] were 3.3 µM, > 123 µM and > 123 µM, respectively. For the same molecule, in data set [3], the CC50 was found to be 172 µM.

Turning to `O=C(CSc1nncnc1-c1ccccc1Cl)Nc1ccccc1Br`, the selectivity ratio in data set [1] was < 1; in data set [5] it was ≤ 1; in data set [6] it was 792. Besides, the concentration giving a half-maximal response (EC50) in data set [2] is 0.092 µM; in data set [4], > 73 µM; in data set [7] it was ≥ 55 µM. In data set [3], this molecule displayed a CC50 of 73 µM.

Consider `CC(=O)c1ccc(NC(=O)CSc2nncnc2-c2ccccc2Cl)c(Br)c1`, for which the selectivity ratio in data set [1] was < 1; in data set [5], < 1; in data set [6], 404. In addition, the EC50 in data set [2] was 0.086 µM; in data set [4] it was > 35 µM; in data set [7] it was > 34 µM. The same molecule came in with a CC50 in data set [3] of 34 µM.

For `Cc1cn([C@H]2C[C@H](N=[N+]=[N-])[C@@H](CO)O2)c(=O)[nH]c1=O` [ZIDOVUDINE], the results for the selectivity ratio in data set [1], in data set [5] and in data set [6] were 56900, 29600 and 8300, respectively. For the same molecule, the EC50 came out at 0.004 µM in data set [4] and 0.009 µM in data set [7].

As for `Cc1ccc(NC(=O)CSc2nncnc2-c2ccccc2Cl)c(Br)c1`, the selectivity ratio in data set [1] is < 1; in data set [5], ≤ 1; in data set [6], 253. In addition, the half-maximal effective concentration (EC50) in data set [2] was 0.178 µM; in data set [4] it was > 45 µM; in data set [7] it was ≥ 42 µM. The same molecule came in with a CC50 in data set [3] of 45 µM.

On to `Cc1ccnc2c1NC(=O)c1cccnc1N2C1CC1` [NEVIRAPINE], for which the CC50 in data set [3] is > 15 µM. Also, the EC50 in data set [7] came to 11 µM.

Consider `O=C(CSc1nncnc1-c1cccc2ccccc12)Nc1ccccc1[N+](=O)[O-]`, for which the selectivity ratio in data set [1] is < 1; in data set [5], 25; in data set [6] it was 3260. The EC50 is 0.043 µM in data set [2], > 142 µM in data set [4] and 5.6 µM in data set [7]. Moreover, the CC50 in data set [3] is 142 µM.

On to `O=C(CSc1nncnc1-c1cccc2ccccc12)Nc1ccccc1F`, for which the figures for the selectivity ratio in data set [1], in data set [5] and in data set [6] were < 1, < 1 and 184, respectively. Moreover, the EC50 was 0.359 µM in data set [2], > 65 µM in data set [4] and > 65 µM in data set [7]. Also, in data set [3], half-maximal cytotoxicity (CC50) was put at 65 µM.

Regarding `O=C(CSc1nncnc1-c1ccccc1Cl)c1ccc(Br)cc1Br`, the selectivity ratio in data set [1] and in data set [6] was < 1 throughout. In addition, the EC50 in data set [2] and in data set [4] was > 28 µM each time. Besides, the 50% cytotoxic concentration (CC50) in data set [3] came out at 28 µM.

As to `O=C(CSc1nncnc1-c1ccccc1Cl)N1CCc2ccccc2C1`, the figures for the selectivity ratio in data set [1], in data set [5] and in data set [6] were > 1, < 1 and ≥ 52, respectively. The 50% effective concentration (EC50) is 0.731 µM in data set [2], > 38 µM in data set [4] and ≥ 43 µM in data set [7]. Moreover, in data set [3], the half-maximal cytotoxic concentration (CC50) is ≥ 38 µM.

As for `COC(=O)c1sccc1NC(=O)CSc1nncnc1-c1ccccc1Cl`, the selectivity ratio in data set [1] is < 1; in data set [5], < 1; in data set [6] it was 35. The 50% effective concentration (EC50) was 2.9 µM in data set [2], > 105 µM in data set [4] and > 105 µM in data set [7]. Half-maximal cytotoxicity in data set [3] (CC50) was put at 105 µM.

As for `O=C(CSc1nncnc1-c1cccc2ccccc12)Nc1cccnc1Cl`, the selectivity ratio is < 1 in data set [1], 6 in data set [5] and 751 in data set [6]. For the same molecule, the half-maximal effective concentration (EC50) was 0.059 µM in data set [2], > 44 µM in data set [4] and 7 µM in data set [7]. The molecule also showed a CC50 in data set [3] of 44 µM.

As to `Cc1cnc(NC(=O)CSc2nncnc2-c2ccccc2Cl)c(Br)c1`, the selectivity ratio in data set [1] and in data set [6] was < 1 throughout. Moreover, the EC50 in data set [2] is > 31 µM; in data set [4], > 144 µM. In addition, in data set [3], the midpoint of cytotoxicity, the CC50, lay at 144 µM.

Regarding `CCOC(=O)c1ccc(NC(=O)CSc2nncnc2-c2cccc3ccccc23)c(Br)c1`, the selectivity ratio was < 1 in data set [1], < 1 in data set [5] and 524 in data set [6]. In addition, the values for the EC50 in data set [2], in data set [4] and in data set [7] were 0.21 µM, > 105 µM and > 105 µM, respectively. The molecule also displayed a CC50 in data set [3] of 105 µM.

On to `O=C(CSc1nncnc1-c1cccc2ccccc12)Nc1ccccc1Cl`, for which the selectivity ratio was < 1 in data set [1], < 1 in data set [5] and 470 in data set [6]. Further, the concentration for a half-maximal effect (EC50) was 0.135 µM in data set [2], > 63 µM in data set [4] and > 63 µM in data set [7]. The molecule further yielded a CC50 in data set [3] of 63 µM.

Turning to `Cc1ccc(NC(=O)CSc2nncnc2-c2cccc3ccccc23)c([N+](=O)[O-])c1`, the selectivity ratio in data set [1] was < 1; in data set [5], 28; in data set [6] it was 3170. The values for the EC50 in data set [2], in data set [4] and in data set [7] were 0.046 µM, > 147 µM and 5.2 µM, respectively. The same molecule returned a 50% cytotoxic concentration (CC50) in data set [3] of 147 µM.

Turning to `O=C(CSc1nncnc1-c1ccccc1Cl)N1CCCc2ccccc21`, the selectivity ratio in data set [1] and in data set [6] was < 1 in each case. In addition, the EC50 in data set [2] and in data set [4] was > 35 µM throughout. The molecule also gave a cytotoxic concentration (CC50) in data set [3] of 35 µM.

Consider `O=C(CSc1nncnc1-c1ccccc1Cl)Nc1ccccc1`, for which the selectivity ratio in data set [1] is < 1; in data set [5], < 1; in data set [6], 296. In addition, the EC50 in data set [2] was 0.42 µM; in data set [4] it was > 127 µM; in data set [7], > 127 µM. The half-maximal cytotoxic concentration (CC50) in data set [3] stood at 127 µM.

`Cc1ccc(NC(=O)CSc2nncnc2-c2cccc3ccccc23)c(Br)c1`: the figures for the selectivity ratio in data set [1], in data set [5] and in data set [6] were < 1, 4 and 852, respectively. In addition, the EC50 is 0.195 µM in data set [2], > 166 µM in data set [4] and 46 µM in data set [7]. The molecule further returned a CC50 in data set [3] of 166 µM.

On to `O=C(CSc1nncnc1-c1ccccc1Cl)Nc1ccccc1Cl`, for which the selectivity ratio in data set [1] was < 1; in data set [5], ≤ 2. The EC50 is > 90 µM in data set [4] and ≥ 55 µM in data set [7].

On to `O=C(CSc1nncnc1-c1cccc2ccccc12)Nc1ccccc1`, for which the values for the selectivity ratio in data set [1], in data set [5] and in data set [6] were < 1, < 1 and 101, respectively. Also, the values for the EC50 in data set [2], in data set [4] and in data set [7] were 1.53 µM, > 154 µM and > 154 µM, respectively. For the same molecule, the 50% cytotoxic concentration (CC50) in data set [3] was found to be 154 µM.

For the molecule `O=C(CSc1nncnc1-c1cccc2ccccc12)Nc1ccc([N+](=O)[O-])cc1Cl`, the selectivity ratio in data set [1] and in data set [6] was < 1 each time. The 50% effective concentration (EC50) in data set [2] and in data set [4] was > 150 µM in each case. This molecule had a CC50 in data set [3] of 150 µM.

As to `Nc1ccn([C@H]2CC[C@@H](CO)O2)c(=O)n1` [ZALCITABINE], the selectivity ratio in data set [1] was > 74; in data set [6], 68. In addition, the 50% effective concentration (EC50) worked out at 1 µM in data set [2] and 1.3 µM in data set [4]. Moreover, the CC50 in data set [3] is > 95 µM.

As for `O=C(CSc1nncnc1-c1ccccc1Cl)Nc1ccccc1F`, the results for the selectivity ratio in data set [1], in data set [5] and in data set [6] were < 1, < 1 and 471, respectively. Further, the EC50 was 0.21 µM in data set [2], > 98 µM in data set [4] and > 98 µM in data set [7]. In data set [3], this molecule had a CC50 of 98 µM.

In the case of `CCOC(=O)c1ccc(NC(=O)CSc2nncnc2-c2cccc3ccccc23)c(Cl)c1`, the results for the selectivity ratio in data set [1], in data set [5] and in data set [6] were < 1, < 1 and 729, respectively. In addition, the EC50 in data set [2] is 0.205 µM; in data set [4] it was > 150 µM; in data set [7], > 150 µM. In data set [3], this molecule returned a CC50 of 150 µM.

`O=C1Nc2ccc(Cl)cc2[C@@](C#CC2CC2)(C(F)(F)F)O1` [EFAVIRENZ]: the 50% cytotoxic concentration (CC50) in data set [3] was > 6.3 µM.

In the case of `O=C(CSc1nncnc1-c1cccc2ccccc12)Nc1ccc(Cl)cc1Cl`, the selectivity ratio in data set [1] and in data set [6] was < 1 throughout. Further, the half-maximal effective concentration (EC50) in data set [2] and in data set [4] was > 254 µM in each case. The molecule further had a 50% cytotoxic concentration (CC50) in data set [3] of 254 µM.
